Measurements published in patent publication US11912701B2, “Protein kinase inhibitors for promoting liver regeneration or reducing or preventing hepatocyte death” (HEPAREGENIX GMBH, priority 2018, dated 2024).

Tests used:
Format in all cases: biochemical
MKK4 = target: T1, MKK4 (Homo sapiens, UniProt P45985); assay: 33PanQinase enzyme assay, MKK4; conditions: assay 'IC50'; read-out: Potency MKK4 (IC50)
T1 construct: purchased ProQinase GmbH, Freiburg, Germany (33PanQinase Assay Service)
T1 sequence (P45985 1-399): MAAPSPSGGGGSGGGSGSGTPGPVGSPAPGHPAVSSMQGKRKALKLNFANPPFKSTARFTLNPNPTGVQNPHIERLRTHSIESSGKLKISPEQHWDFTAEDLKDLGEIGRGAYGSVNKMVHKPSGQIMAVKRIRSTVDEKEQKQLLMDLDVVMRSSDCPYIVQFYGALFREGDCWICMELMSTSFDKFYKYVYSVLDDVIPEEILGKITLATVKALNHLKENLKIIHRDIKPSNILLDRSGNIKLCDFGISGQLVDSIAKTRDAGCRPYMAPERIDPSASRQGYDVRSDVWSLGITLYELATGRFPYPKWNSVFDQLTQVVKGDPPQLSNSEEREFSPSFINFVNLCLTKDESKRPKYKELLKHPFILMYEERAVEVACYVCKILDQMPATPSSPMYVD
Method in brief: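 Radiometric 33PanQinase assay: kinase, substrate, ATP and compound in standard buffer, 60 min at 30 °C; 33Pi incorporation read by scintillation counting.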

BRaf = target: T2, BRaf (Homo sapiens, UniProt P15056); assay: 33PanQinase enzyme assay, BRaf; conditions: ratio IC50(BRaf)/IC50(MKK4)
T2 construct: purchased ProQinase GmbH, Freiburg, Germany (33PanQinase Assay Service)
Method in brief: (§1)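 Radiometric 33PanQinase format: kinase with substrate, ATP and compound (added in 10% DMSO stock) incubated 60 min at 30° C, stopped with 2% H3PO4, ^33Pi incorporation counted by scintillation. Single-concentration data given as % residual activity; IC50 by least-squares fit, with selectivity as IC50(off-target)/IC50(MKK4).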

JNK1 = JNK1 (Homo sapiens, UniProt P45983); assay: 33PanQinase enzyme assay, JNK1; parameters: purchased ProQinase GmbH, Freiburg, Germany (33PanQinase Assay Service); conditions: ratio IC50(JNK1)/IC50(MKK4)
Method in brief: as §1

MKK7 = target: T3, MKK7 (Homo sapiens, UniProt O14733); assay: 33PanQinase enzyme assay, MKK7; parameters: purchased ProQinase GmbH, Freiburg, Germany (33PanQinase Assay Service); conditions: ratio IC50(MKK7)/IC50(MKK4)
T3 sequence (O14733 1-419): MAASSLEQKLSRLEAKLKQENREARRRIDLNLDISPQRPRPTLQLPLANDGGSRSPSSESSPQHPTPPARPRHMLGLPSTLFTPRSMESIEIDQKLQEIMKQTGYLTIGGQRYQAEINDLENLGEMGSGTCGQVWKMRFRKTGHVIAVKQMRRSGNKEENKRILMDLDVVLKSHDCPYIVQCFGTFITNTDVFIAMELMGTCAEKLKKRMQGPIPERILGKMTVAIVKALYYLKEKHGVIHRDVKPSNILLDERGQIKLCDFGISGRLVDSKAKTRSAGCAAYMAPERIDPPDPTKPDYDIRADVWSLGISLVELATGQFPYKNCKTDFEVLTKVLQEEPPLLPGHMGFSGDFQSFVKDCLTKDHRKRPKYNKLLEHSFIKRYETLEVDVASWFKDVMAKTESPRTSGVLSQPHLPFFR
Method in brief: as §1

T2 sequence (P15056 whole entry, species assumed): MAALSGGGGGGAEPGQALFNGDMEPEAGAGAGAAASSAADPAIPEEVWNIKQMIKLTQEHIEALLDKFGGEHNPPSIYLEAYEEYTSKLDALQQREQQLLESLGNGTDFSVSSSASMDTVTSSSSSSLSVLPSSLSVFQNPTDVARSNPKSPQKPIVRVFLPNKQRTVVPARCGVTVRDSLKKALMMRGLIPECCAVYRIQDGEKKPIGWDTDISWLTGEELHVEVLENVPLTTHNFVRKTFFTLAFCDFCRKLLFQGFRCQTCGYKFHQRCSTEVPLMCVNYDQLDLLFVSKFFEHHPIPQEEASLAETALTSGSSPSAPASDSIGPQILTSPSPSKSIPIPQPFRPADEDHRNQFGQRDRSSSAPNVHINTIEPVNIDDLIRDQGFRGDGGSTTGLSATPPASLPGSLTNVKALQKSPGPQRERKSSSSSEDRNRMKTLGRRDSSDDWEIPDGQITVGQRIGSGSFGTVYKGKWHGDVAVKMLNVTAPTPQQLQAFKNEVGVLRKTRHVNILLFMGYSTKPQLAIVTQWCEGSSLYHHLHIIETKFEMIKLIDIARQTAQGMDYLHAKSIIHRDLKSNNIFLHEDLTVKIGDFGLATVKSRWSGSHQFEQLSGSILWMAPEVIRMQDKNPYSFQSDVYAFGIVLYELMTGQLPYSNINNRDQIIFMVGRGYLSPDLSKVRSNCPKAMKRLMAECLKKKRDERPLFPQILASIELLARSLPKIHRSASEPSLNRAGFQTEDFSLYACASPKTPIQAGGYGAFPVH
Sequence of JNK1 (P45983 whole entry): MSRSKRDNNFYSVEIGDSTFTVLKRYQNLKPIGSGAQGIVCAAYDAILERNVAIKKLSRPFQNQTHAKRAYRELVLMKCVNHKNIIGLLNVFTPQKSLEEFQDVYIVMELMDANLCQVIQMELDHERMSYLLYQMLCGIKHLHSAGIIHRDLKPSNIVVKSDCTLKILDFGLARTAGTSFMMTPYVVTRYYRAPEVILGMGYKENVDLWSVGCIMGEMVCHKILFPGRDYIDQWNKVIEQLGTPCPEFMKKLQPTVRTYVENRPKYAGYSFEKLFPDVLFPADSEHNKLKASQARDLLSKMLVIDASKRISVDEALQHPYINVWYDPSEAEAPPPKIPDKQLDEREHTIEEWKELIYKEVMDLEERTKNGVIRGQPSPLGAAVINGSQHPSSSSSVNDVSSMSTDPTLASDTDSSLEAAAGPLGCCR

IC50 (MKK4) [nM]	Selectivity Braf, IC50(off-target)/IC50(MKK4) (BRaf)	Selectivity JNK1, IC50(off-target)/IC50(MKK4) (JNK1)	Selectivity IVIKK7, IC50(off-target)/IC50(MKK4) (MKK7)	Structure (SMILES)
100 to 1000	◯ (3 ≥ IC50(off-target)/IC50(MKK4))	+ (10 ≥ IC50(off-target)/IC50(MKK4) > 3)	+++ (IC50(off-target)/IC50(MKK4) > 100)	CCCS(=O)(=O)Nc1ccc(F)c(C(=O)c2c[nH]c3ncc(N4CC(C(=O)O)C4)cc23)c1F [Example 137, 1-(3-(2,6-difluoro-3-(propylsulfonamido)benzoyl)-1H-pyrrolo[2,3-b]pyridin-5-yl)azetidine-3-carboxylic acid]
< 100	+++ (IC50(off-target)/IC50(MKK4) > 100)	++·+	+++ (IC50(off-target)/IC50(MKK4) > 100)	O=C(c1ccc(F)c(NS(=O)(=O)CCC(F)(F)F)c1F)c1c[nH]c2ncc(-c3cnc(C(F)(F)F)nc3)cc12 [Example 142, N-(2,6-difluoro-3-(5-(2-(trifluoromethyl)pyrimidin-5-yl)-1H-pyrrolo[2,3-b]pyridine-3-carbonyl)phenyl)-3,3,3-trifluoro-propane-1-sulfonamide]
< 100	+++ (IC50(off-target)/IC50(MKK4) > 100)	+++ (IC50(off-target)/IC50(MKK4) > 100)	+++ (IC50(off-target)/IC50(MKK4) > 100)	O=C(c1ccc(F)c(NS(=O)(=O)CCC(F)(F)F)c1F)c1c[nH]c2ncc(-c3ccc(Cl)cc3)cc12 [Example 150, N-(3-(5-(4-chlorophenyl)-1H-pyrrolo[2,3-b]pyridine-3-carbonyl)-2,6-difluorophenyl)-3,3,3-trifluoropropane-1-sulfonamide]

Structure (SMILES)	IC50 (MKK4) [nM]	Selectivity Braf, IC50(off-target)/IC50(MKK4) (BRaf)	Selectivity JNK1, IC50(off-target)/IC50(MKK4) (JNK1)	Selectivity IVIKK7, IC50(off-target)/IC50(MKK4) (MKK7)
CCCS(=O)(=O)Nc1ccc(F)c(C(=O)c2c[nH]c3ncc(N4CCC(=O)CC4)cc23)c1F [Example 135, N-(2,4-difluoro-3-(5-(4-oxopiperidin-1-yl)-1H-pyrrolo[2,3-b]pyridine-3-carbonyl)phenyl)propane-1-sulfonamide]	1000 to 10000	◯ (3 ≥ IC50(off-target)/IC50(MKK4))	◯ (3 ≥ IC50(off-target)/IC50(MKK4))	++ (100 ≥ IC50(off-target)/IC50(MKK4) > 10)
CCCS(=O)(=O)Nc1ccc(F)c(C(=O)c2c[nH]c3ncc(N4CCC(O)CC4)cc23)c1F [Example 136, N-(2,4-difluoro-3-(5-(4-hydroxypiperidin-1-yl)-1H-pyrrolo[2,3-b]pyridine-3-carbonyl)phenyl)propane-1-sulfonamide]	1000 to 10000	◯ (3 ≥ IC50(off-target)/IC50(MKK4))	◯ (3 ≥ IC50(off-target)/IC50(MKK4))	++ (100 ≥ IC50(off-target)/IC50(MKK4) > 10)
CCCS(=O)(=O)Nc1ccc(F)c(C(=O)c2c[nH]c3ncc(N4CC(C)OC(C)C4)cc23)c1F (stereo not drawn) [Example 138, N-(3-(5-(2,6-dimethyl-morpholino)-1H-pyrrolo[2,3-b]pyridine-3-carbonyl)-2,4-difluorophenyl)propane-1-sulfonamide]	1000 to 10000	◯ (3 ≥ IC50(off-target)/IC50(MKK4))	◯ (3 ≥ IC50(off-target)/IC50(MKK4))	++ (100 ≥ IC50(off-target)/IC50(MKK4) > 10)
CCCS(=O)(=O)Nc1ccc(F)c(C(=O)c2c[nH]c3ncc(N4CCCCC4)cc23)c1F [Example 140]	1000 to 10000	◯ (3 ≥ IC50(off-target)/IC50(MKK4))	◯ (3 ≥ IC50(off-target)/IC50(MKK4))	++ (100 ≥ IC50(off-target)/IC50(MKK4) > 10)
CCCS(=O)(=O)Nc1c(F)ccc(C(=O)c2c[nH]c3ncc(-c4cccc(C#N)c4)cc23)c1F [Example 143, N-(3-(5-(3-cyanophenyl)-1-pyrrolo[2,3-b]pyridine-3-carbonyl)-2,6-difluorophenyl)propane-1-sulfonamide]	< 100	+++ (IC50(off-target)/IC50(MKK4) > 100)	++ (100 ≥ IC50(off-target)/IC50(MKK4) > 10)	+++ (IC50(off-target)/IC50(MKK4) > 100)
CCCS(=O)(=O)Nc1c(F)ccc(C(=O)c2c[nH]c3ncc(-c4ccnnc4)cc23)c1F [Example 144, N-(2,6-difluoro-3-(5-(pyridazin-4-yl)-1H-pyrrolo[2,3-b]pyridine-3-carbonyl)phenyl)propane-1-sulfonamide]	< 100	++ (100 ≥ IC50(off-target)/IC50(MKK4) > 10)	+++ (IC50(off-target)/IC50(MKK4) > 100)	+++ (IC50(off-target)/IC50(MKK4) > 100)
Cc1ncc(-c2cnc3[nH]cc(C(=O)c4ccc(F)c(NS(=O)(=O)CCC(F)(F)F)c4F)c3c2)cn1 [Example 147, N-(2,6-difluoro-3-(5-(2-methylpyrimidin-5-yl)-1H-pyrrolo[2,3-b]pyridine-3-carbonyl)phenyl)-3,3,3-trifluoropropane-1-sulfonamide]	< 100	++ (100 ≥ IC50(off-target)/IC50(MKK4) > 10)	+++ (IC50(off-target)/IC50(MKK4) > 100)	+++ (IC50(off-target)/IC50(MKK4) > 100)
CS(=O)(=O)Nc1c(F)ccc(C(=O)c2c[nH]c3ncc(-c4ccc(Cl)cc4)cc23)c1F [Example 149, N-(3-(5-(4-chlorophenyl)-1H-pyrrolo[2,3-b]pyridine-3-carbonyl)-2,6-difluorophenyl)methanesulfonamide]	100 to 1000	++ (100 ≥ IC50(off-target)/IC50(MKK4) > 10)	++ (100 ≥ IC50(off-target)/IC50(MKK4) > 10)	+++ (IC50(off-target)/IC50(MKK4) > 100)
CCCS(=O)(=O)Nc1c(F)ccc(C(=O)c2c[nH]c3ncc(-c4ccc(S(C)(=N)=O)cc4)cc23)c1F (stereo not drawn) [Example 151, N-(2,6-difluoro-3-(5-(4-(S-methylsulfonimidoyl)phenyl)-1H-pyrrolo[2,3-b]pyridine-3-carbonyl)phenyl)propane-1-sulfonamide]	100 to 1000	++ (100 ≥ IC50(off-target)/IC50(MKK4) > 10)	++ (100 ≥ IC50(off-target)/IC50(MKK4) > 10)	+++ (IC50(off-target)/IC50(MKK4) > 100)
CCCS(=O)(=O)Nc1c(F)ccc(C(=O)c2c[nH]c3ncc(-c4ccc(O)cc4Cl)cc23)c1F [Example 152, N-(3-(5-(2-chloro-4-hydroxyphenyl)-1H-pyrrolo[2,3-b]pyridine-3-carbonyl)-2,6-difluorophenyl)propane-1-sulfonamide]	< 100	+++ (IC50(off-target)/IC50(MKK4) > 100)	++ (100 ≥ IC50(off-target)/IC50(MKK4) > 10)	+++ (IC50(off-target)/IC50(MKK4) > 100)
CCCS(=O)(=O)Nc1c(F)ccc(C(=O)c2c[nH]c3ncc(-c4ccc(OCC(O)CO)cc4Cl)cc23)c1F (stereo not drawn) [Example 153, N-(3-(5-(2-chloro-4-(2,3-dihydroxypropoxy)phenyl)-1H-pyrrolo[2,3-b]pyridine-3-carbonyl)-2,6-difluorophenyl)propane-1-sulfonamide]	< 100	+++ (IC50(off-target)/IC50(MKK4) > 100)	++ (100 ≥ IC50(off-target)/IC50(MKK4) > 10)	+++ (IC50(off-target)/IC50(MKK4) > 100)
CCCS(=O)(=O)Nc1c(F)ccc(C(=O)c2c[nH]c3ncc(-c4ccc(OCC(O)CO)cc4)cc23)c1F (stereo not drawn) [Example 154, N-(3-(5-(4-(2,3-dihydroxypropoxy)phenyl)-1H-pyrrolo[2,3-b]pyridine-3-carbonyl)-2,6-difluorophenyl)propane-1-sulfonamide]	< 100	++ (100 ≥ IC50(off-target)/IC50(MKK4) > 10)	++ (100 ≥ IC50(off-target)/IC50(MKK4) > 10)	+++ (IC50(off-target)/IC50(MKK4) > 100)
